Experimental data published in patent publication US8686039B2, “Aqueous nanoemulsion composition containing conjugated linoleic acid” (Hwail Pharmaceutical Co., Ltd., priority 2009, dated 2014).
Values belong to the compound of their own block, whether it stands above or below them.

Tests used:
3T3-L1 pre-adipocytes [1] = assay: Lipolysis effect (Oil red O staining, neutral lipids); format: cell-based; conditions: 10 μg/mL, 8th day after differentiation, vs control group, FIGS. 4 and 5
Method: (§1) 3T3-L1 pre-adipocytes were cultured in Dulbecco's Modified Eagle's Medium (DMEM) containing 10% fetal bovine serum, 100 unit/mL penicillin and 10 μg/mL streptomycin at 37° C., 5% CO2 incubator. When 70 to 80% of cells were confluent, cells were pre-differentiated with DMEM containing dexamethazone, pioglitazone, IBMX (3-isobutyl-1-methylxanthin), insulin and FBS which are differentiation inducers, and then were differentiated with DMEM containing insulin, pioglitazone and FBS. After differentiation, lipids were matured with growth medium containing 10% FBS and insulin. Samples were dissolved in DMSO and treated in 10 μg/mL of the final concentration.
1×10^5 cells were dispensed into each well of 6-well plate and differentiated. On the 8th day after differentiation, media were removed, and cells were washed twice with ice-cold PBS. Cells were fixed with 10% formalin at room temperature for 1 hour, stained with 0.2 Oil red O (in isoprophanol) for 30 minutes, and then washed with distilled water. Isopropanol was added thereto to dissolve oil droplets, and then the content of neutral lipids was measured as absorbance at 490 nm. The results are represented in FIGS. 4 and 5.

3T3-L1 pre-adipocytes [2] = assay: Adipogenesis inhibitory effect (Oil red O staining); format: cell-based; conditions: Mus musculus, 10 μg/mL, treated with MDI medium 48 hours, 8th day after differentiation, FIG. 6, read-out: Content of neutral lipids decreased compared with the control group (adipogenesis inhibitory effect)
Method: as §1, with “concentration. 1×10^5 cells were dispensed into each well of 6-well plate. When 70% of cells were confluent, cells were treated with MDI medium (differentiation medium) and each sample at the same time, then incubated for 48 hours. On the 8th day after differentiation, the content of neutral lipids was measured with Oil red O staining. The results are represented in FIG. 6.” for “concentration.”

[3] = system: leptin secreted from adipocytes; assay: Leptin secretion (ELISA); format: cell-based, mouse; conditions: 10 μg/mL, FIG. 8
Method: 3T3-L1 pre-adipocytes were cultured in Dulbecco's Modified Eagle's Medium (DMEM) containing 10% fetal bovine serum, 100 unit/mL penicillin and 10 μg/mL streptomycin at 37° C., 5% CO2 incubator. When 70 to 80% of cells were confluent, cells were pre-differentiated with DMEM containing dexamethazone, pioglitazone, IBMX (3-isobutyl-1-methylxanthin), insulin and FBS which are differentiation inducers, and then were differentiated with DMEM containing insulin, pioglitazone and FBS. After differentiation, lipids were matured with growth medium containing 10% FBS and insulin. Samples were dissolved in DMSO and treated in 10 μg/mL of the final concentration. An experiment was carried out to check whether the secretion amount of leptin, which is known as an appetite-related hormone, is regulated. The amount of leptin secreted from adipocytes was measured by enzyme-linked immunosorbent assay (ELISA) on media collected after treatment of adipocytes with sample. 100 μl of rabbit anti-mouse leptin IgG was aliquoted into an ELISA plate. […] Color development was elicited by the use of alkaline phosphatase conjugated substrate kit, and then absorbance at 490 nm was measured by an ELISA reader (SUNRISE, TECAN, Austria). […]

3T3-L1 pre-adipocytes [4] = assay: Glycerol quantification (free glycerol reagent); format: cell-based; conditions: 10 μg/mL, medium after 24 hours treatment, FIG. 7
Method: as §1
Glycerol was quantified with an enzyme reaction method by using free glycerol reagent (Sigma, USA). 10 μl of medium, collected after treatment of cells with sample for 24 hours was added to 0.8 mL of Free glycerol reagent which was pre-warmed at 37° C., and then the reaction of the mixture was carried out in 37° C. water bath for 5 minutes. For quantification of glycerol, standard glycerol (25 μg/10 μl) was reacted in the same manner as above, and then absorbance at 540 nm was measured. The content of glycerol was calculated with the following formula.

3T3-L1 pre-adipocytes [5] = format: cell-based; conditions: mouse, 24 h, 10 μg/mL
Method: as §1
1×10^4 pre-adipocytes were dispensed into each well of 96-well plate, and each sample was treated. Then cells were incubated at 37° C., 5% CO2 incubator for 24 hours. After 24 hours, MTT (in phosphate buffered saline, final concentration was […]) was treated, and then cells were incubated for 4 hours. Formed formazan crystal was dissolved with DMSO:ethanol (1:1) and absorbance at 540 nm was measured by a microplate reader (SUNRISE, TECAN, Austria). Cell viability was determined by the ratio of absorbance value of sample treating group to absorbance value of control group, and the results are represented in FIG. 3. […] Thus, there is no statistically significant difference from that of the control group.

male Sprague-Dawley rats [6] = assay: Serum cholesterol and neutral lipid in rats fed experimental diet; format: in vivo; conditions: HF diet + 2% test material, 5 weeks, FIG. 11
Text: (§2) 28 male Sprague-Dawley rats (5 weeks, 145±5 g) were purchased from the Orient Company (Korea) as experimental animals. Rats were adapted with a lab-chow diet in pellet form for a week. Other obesity-induction groups except the normal group (NC) were fed high fat diet ad libitum for 5 weeks to induce obesity, and then rats were divided into four groups (7 rats per group) including the normal group and bred for 5 weeks as represented in FIG. 13.
(§3) AIN-76 diet (Teklad, USA) was used as a base of the experimental diet. Test materials were added at the level of 2% of high fat diet. In the CLA group and N-CLA group, 2% of CLA and N-CLA were added, respectively, while reducing corn oil. Experimental diet and water were supplied ad libitum. During the breeding period, the experimental diets were kept in a 4° C. refrigerator. Each of the animals was placed in an empty cage under a specific environmental condition, at 25±2° C. with a relative humidity of 60±5%, a lighting cycle of 12 hr light/12 hr dark. Body weight and the amount of diet intake were measured at constant time at 2-day intervals during the overall experimental period. Feed efficiency ratio (FER) was calculated by dividing the amount of body weight gain during the experimental period with the amount of diet intake during the same period, and the results are represented in Table 16.
(§4) After breeding, rats were fasted for 12 hours and then primarily anesthetized with ether. […] Liver was isolated, collected, rapidly frozen in liquid nitrogen and stored at −70° C. until sample analysis for measurement of enzyme activity and lipid quantification. […]
Quantification of total serum cholesterol was performed by using a test solution (Asanpharm Co., Korea) utilizing Allain et al. (1974)'s enzyme method. […] Thus, to quantify both CE and free cholesterol, CE was converted into fatty acid and free cholesterol by cholesterol esterase. […] H2O2 was mixed with peroxidase, phenol and 4-amino-antipyrine to emit red color, and then absorbance at 500 nm was measured. […]
The content of HDL-cholesterol was measured with kit reagent (Asanpharm Co., Korea). […]

male Sprague-Dawley rats [7] = assay: Body weight, diet intake and FER in high fat diet obesity-induced rats; format: in vivo; conditions: HF diet + 2% test material
Text: as §2, §3

male Sprague-Dawley rats [8] = assay: Organ and white adipose tissue weight in rats fed experimental diet; format: in vivo; conditions: HF diet + 2% test material, 5 weeks
Text: as §2, §3
After breeding, rats were fasted for 12 hours and then primarily anesthetized with ether. […] Collected blood was centrifuged at 3,000×g, 4° C. for 15 minutes to obtain serum, and then obtained serum was stored at −70° C. until sample analysis. Organ tissues (liver, heart, kidney, epididymal white adipose tissue and perirenal white adipose tissue) of the experimental animals were washed with PBS (phosphate buffered saline) several times, and then weighed after removing surface moisture. Liver was isolated, collected, rapidly frozen in liquid nitrogen and stored at −70° C. until sample analysis for measurement of enzyme activity and lipid quantification. The results of measuring the weight of epididymal white adipose tissue and perirenal white adipose tissue per unit body weight are represented in FIG. 10.

male Sprague-Dawley rats [9] = assay: Liver tissue lipid content in rats fed experimental diet; format: in vivo; conditions: HF diet + 2% test material, 5 weeks, vs HFD group, FIG. 12
Text: as §2
as §3, with “During the breeding period, the experimental diets were kept in a 4° C. refrigerator. Each of the animals was placed in an empty cage under a specific environmental condition, at 25±2° C. with a relative humidity of 60±5%, a lighting cycle of 12 hr light/12 hr dark.” left out
as §4

Compound: CCCCCCCCCCC[C@@H](C[C@@H]1OC(=O)[C@H]1CCCCCC)OC(=O)[C@H](CC(C)C)NC=O [Orlistat]
Content of neutral lipids (lipolysis effect) (3T3-L1 pre-adipocytes [1]): tendency of decreasing neutral lipids
inhibition at 10 µg/mL (3T3-L1 pre-adipocytes [2]): 12.5%
Amount of leptin secretion decreased compared with the control group [3]: 11.6%
Content of glycerol (secretion of glycerol, lipolysis) (3T3-L1 pre-adipocytes [4]): 1.57 µg/mL
Cell viability (3T3-L1 pre-adipocytes [5]): 103%

Organ Weight: Heart (male Sprague-Dawley rats [8]): 2.43 ± 0.17 mg/g B.W.
Organ Weight: Kidney (male Sprague-Dawley rats [8]): 5.35 ± 0.24 mg/g B.W.
Organ Weight: Liver (male Sprague-Dawley rats [8]): 44.69 ± 2.57 mg/g B.W.
Compound: conjugated linoleic acid [CLA]
Content of serum neutral lipid (triglyceride, TG) (male Sprague-Dawley rats [6]): lower than HFD group with statistical significance
Serum total cholesterol (TC) (male Sprague-Dawley rats [6]; vs HFD group): decreased compared with the HFD group with statistical significance
Serum low density lipid (LDL) (male Sprague-Dawley rats [6]; vs HFD group, calculated by Friedewald method): decreased compared with the HFD group with statistical significance
Content of neutral lipids (lipolysis effect) (3T3-L1 pre-adipocytes [1]): tendency of decreasing neutral lipids
Body weight in the 5th week (male Sprague-Dawley rats [7]; 5th week, FIG. 9): not different from that of the HFD group with statistical significance
Body Weight Gain (male Sprague-Dawley rats [7]; 5 weeks): 2.89 ± 0.55 g/day
FER (food efficiency ratio) = body weight gain/food intake (male Sprague-Dawley rats [7]; 5 weeks): 0.11 ± 0.02
Food Intake (male Sprague-Dawley rats [7]; 5 weeks): 28.18 ± 0.21 g/day
Body weight change during the experiment period (male Sprague-Dawley rats [7]; weeks 2 onward, vs HFD group, FIG. 9): lower than in the HFD group from the 2nd week to the 4th week
Weight of epididymal white adipose tissue and perirenal white adipose tissue per unit body weight (male Sprague-Dawley rats [8]; vs HFD group, FIG. 10): slightly lighter than in the HFD group without statistical significance
Amount of leptin secretion decreased compared with the control group [3]: 8.3%
Content of neutral lipids in liver tissue (male Sprague-Dawley rats [9]): statistically significant decrease compared with the HFD group
Content of total cholesterol in liver tissue (male Sprague-Dawley rats [9]): statistically significant decrease compared with the HFD group
Content of glycerol (secretion of glycerol, lipolysis) (3T3-L1 pre-adipocytes [4]): tendency of increasing the secretion of glycerol
